In PubChem BioAssay (NCI):
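Method: 48-hour compound exposure of cells in 96-well plates, five concentrations, linear interpolation of endpoints. TGI: total growth inhibition.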

Tests used:
Assay in all cases: NCI-60 cell line screen, 48 h
SK-MEL-5 melanoma = test system: SK-MEL-5 melanoma
ACHN renal = test system: ACHN renal
CCRF-CEM leukemia = test system: CCRF-CEM leukemia
TK-10 renal = test system: TK-10 renal
786-0 renal = test system: 786-0 renal
KM12 colon = test system: KM12 colon
SF-295 CNS = test system: SF-295 CNS
COLO 205 colon = test system: COLO 205 colon
HL-60(TB) leukemia = test system: HL-60(TB) leukemia
OVCAR-8 ovarian = test system: OVCAR-8 ovarian
NCI-H460 lung = test system: NCI-H460 lung
UACC-257 melanoma = test system: UACC-257 melanoma
DMS 114 small cell lung = test system: DMS 114 small cell lung
SK-MEL-2 melanoma = test system: SK-MEL-2 melanoma
RPMI-8226 leukemia = test system: RPMI-8226 leukemia
HCT-116 colon = test system: HCT-116 colon
A549 NSCLC = test system: A549 NSCLC
IGROV1 ovarian = test system: IGROV1 ovarian
K-562 leukemia = test system: K-562 leukemia
M14 melanoma = test system: M14 melanoma
DLD-1 colon = test system: DLD-1 colon
NCI-H522 lung = test system: NCI-H522 lung
SNB-75 CNS = test system: SNB-75 CNS
LXFL 529 NSCLC = test system: LXFL 529 NSCLC
SK-MEL-28 melanoma = test system: SK-MEL-28 melanoma
HOP-18 NSCLC = test system: HOP-18 NSCLC
UO-31 renal = test system: UO-31 renal
SF-268 CNS = test system: SF-268 CNS
U251 CNS = test system: U251 CNS
KM20L2 colon = test system: KM20L2 colon
CAKI-1 renal = test system: CAKI-1 renal
HCC-2998 colon = test system: HCC-2998 colon
UACC-62 melanoma = test system: UACC-62 melanoma
OVCAR-4 ovarian = test system: OVCAR-4 ovarian
OVCAR-5 ovarian = test system: OVCAR-5 ovarian
MOLT-4 leukemia = test system: MOLT-4 leukemia
HOP-92 NSCLC = test system: HOP-92 NSCLC
SNB-19 CNS = test system: SNB-19 CNS
OVCAR-3 ovarian = test system: OVCAR-3 ovarian
SN12C renal = test system: SN12C renal
MALME-3M melanoma = test system: MALME-3M melanoma
A498 renal = test system: A498 renal
RXF 393 renal = test system: RXF 393 renal
LOX IMVI melanoma = test system: LOX IMVI melanoma
HCT-15 colon = test system: HCT-15 colon
M19-MEL melanoma = test system: M19-MEL melanoma
SK-OV-3 ovarian = test system: SK-OV-3 ovarian
HT29 colon = test system: HT29 colon
SNB-78 CNS = test system: SNB-78 CNS
NCI-H23 lung = test system: NCI-H23 lung
HOP-62 NSCLC = test system: HOP-62 NSCLC
XF 498 CNS = test system: XF 498 CNS
SF-539 CNS = test system: SF-539 CNS
EKVX NSCLC = test system: EKVX NSCLC
DMS 273 small cell lung = test system: DMS 273 small cell lung
SW-620 colon = test system: SW-620 colon

Measured: TGI

CCC(C)c1cccc(C)c1NC(=O)C(=O)Cc1nc2ccccc2s1 (stereo unspecified)
> 100 µM: SK-MEL-5 melanoma | ACHN renal | CCRF-CEM leukemia | TK-10 renal | 786-0 renal | KM12 colon | SF-295 CNS | COLO 205 colon | HL-60(TB) leukemia | OVCAR-8 ovarian | NCI-H460 lung | UACC-257 melanoma | DMS 114 small cell lung | SK-MEL-2 melanoma | RPMI-8226 leukemia | HCT-116 colon | A549 NSCLC | IGROV1 ovarian | K-562 leukemia | M14 melanoma | DLD-1 colon | NCI-H522 lung | SNB-75 CNS | LXFL 529 NSCLC | SK-MEL-28 melanoma | HOP-18 NSCLC | UO-31 renal | SF-268 CNS | U251 CNS | KM20L2 colon | CAKI-1 renal | HCC-2998 colon | UACC-62 melanoma | OVCAR-4 ovarian | OVCAR-5 ovarian | MOLT-4 leukemia | HOP-92 NSCLC | SNB-19 CNS | OVCAR-3 ovarian | SN12C renal | MALME-3M melanoma | A498 renal | RXF 393 renal | LOX IMVI melanoma | HCT-15 colon | M19-MEL melanoma | SK-OV-3 ovarian | HT29 colon | SNB-78 CNS | NCI-H23 lung | HOP-62 NSCLC | XF 498 CNS | SF-539 CNS | EKVX NSCLC | DMS 273 small cell lung | SW-620 colon
